{
  "source": "paper PMC8145430",
  "about": "(Chemical Science, 2019)",
  "system": "A549 cells",
  "assay": "Confocal imaging of intracellular localization of fluorescein-labeled peptides",
  "assay_type": "cell-based, human",
  "details": "1 μM, 10 minutes, 37°C, confocal images",
  "data": [
    {"substance": "H-GLFDIIKKIAESF-K(FAM)K5SKTKC(Far)-OMe [FAM-Memrasin]", "values": [
      {"measurement": "tethering on the PM", "result": "displays a clearer tethering on the PM"}
    ]}
  ]
}
